Data from US10479979B2, “Method for making and using cold atmospheric plasma stimulated media for cancer treatment” (U.S. Patent Innovations, LLC, priority 2015, dated 2019).

Tests used:
[1] = test system: U87 cells; test: MTT cell viability of U87 cells cultured 72 hours in test media; format: cell-based, Human
Method: (§1) As a preliminary step, cancer cells are cultured overnight. For example, the cancer cells may be cultured in an incubator under the standard conditions (a 37° C., 5% (v/v) CO2 and humidified environment) for […]. MTT (3-(4,5-dimethylthiazol-2-yl)-2,5-diphenyltetrazolium bromide), a colorimetric assay (Sigma-Aldrich) was harnessed to qualify the cell viability. The initial media which had been used to culture cancer cells overnight may be discarded prior to treatment with CAPs media. […]
(§2) For each cell line, the protocol was identical. […] Ultimately, according to the standard method, the viability of U87 cells were qualified by MTT test and were read by a H1 microplate reader (Hybrid Technology) at the absorbance of 570 nm.
(§3) The protocols for three cell lines were identical. […] Ultimately, the cell viability was measured.
(§4) The protocol for three cell lines was identical. […] Second, we respectively prepared 2.4 mM specific amino acids rich DMEM by dissolving specific quantities of amino acids powers (Sigma-Aldrich) in DMEM (1% ABS). […]

[2] = test system: MCF-7 cells; test: MTT cell viability of MCF-7 cells cultured 72 hours in test media; format: cell-based, Human
Method: as §1, §2, §3, §4

[3] = H2O2 in complete media, nominal 1-100 μM, 72 hours

| Structure (SMILES) | resistance to H2O2 rich media [1, 3] | resistance to H2O2 rich media [2, 3] | growth of cancer cells in untreated amino acid rich DMEM (control group, toxicity) ([1]; 2.4 mM, no CAP treatment) | growth of cancer cells in untreated amino acid rich DMEM (control group, toxicity) ([2]; 2.4 mM, no CAP treatment) |
| --- | --- | --- | --- | --- |
| OO [H2O2, hydrogen peroxide] | stronger resistance to H2O2 than MDA-MB-231 cells | stronger resistance to H2O2 than MDA-MB-231 cells | – | – |
| N[C@@H](Cc1c[nH]c2ccccc12)C(=O)O [tryptophan] | – | – | strong resistance to growth of cancer cells | strong resistance to growth of cancer cells |
